Source: article PMC7251097, “Aspartate/asparagine-β-hydroxylase: a high-throughput mass spectrometric assay for discovery of small molecule inhibitors” (Scientific Reports, 2020)
Where a name gives a salt, the structure may show the parent alone. Read-outs that look alike come from different tables or passages of the source.

Biological target: T1, His6-AspH315–758 (human aspartate/asparagine-β-hydroxylase, AspH) (Homo sapiens, UniProt Q12797)
T1 construct: N-Terminally His6-tagged human AspH315–758 (His6-AspH315–758) was produced in E. coli BL21 (DE3) cells; made in house; host or cells: E. coli BL21 (DE3), pET-28a(+) vector
T1 sequence (Q12797 315-758): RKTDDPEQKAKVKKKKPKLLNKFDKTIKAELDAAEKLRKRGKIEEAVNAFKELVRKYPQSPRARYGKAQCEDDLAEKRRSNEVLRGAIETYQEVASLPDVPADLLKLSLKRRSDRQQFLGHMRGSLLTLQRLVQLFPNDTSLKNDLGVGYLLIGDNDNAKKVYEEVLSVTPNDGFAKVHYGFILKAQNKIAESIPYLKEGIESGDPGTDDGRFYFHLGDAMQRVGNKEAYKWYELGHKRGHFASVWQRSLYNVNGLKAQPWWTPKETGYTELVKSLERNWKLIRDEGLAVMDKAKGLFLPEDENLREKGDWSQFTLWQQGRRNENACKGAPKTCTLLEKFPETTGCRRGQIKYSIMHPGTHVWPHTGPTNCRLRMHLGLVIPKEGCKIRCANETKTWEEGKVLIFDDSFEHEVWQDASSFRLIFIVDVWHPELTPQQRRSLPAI
Experiment: SPE-MS AspH inhibition assay (LOPAC screen at fixed 20 μM and IC50 dose-response), hydroxylation of cyclic peptide hFX-CP101–119
Format: biochemical
Details: for inhibition at 20 µM: read-out: Plate 2 (% inhibition); for IC50: 50 nM His6-AspH315–758, 1.0 μM hFX-CP101–119, 3 μM 2OG, 2 μM Fe(II), 50 mM HEPES pH 7.5, 20 °C, mean ± SD, n = 2 (2,4-PDCA n = 10), read-out: IC50

[1] = LOPAC compound at 20uM, plate 2, conversion of substrate peptide
[2] = LOPAC compound at 20uM, plate 2, normalised to DMSO and 2,4-PDCA controls
[3] = LOPAC compound at 20uM, plate 3, conversion of substrate peptide
[4] = LOPAC compound at fixed 20 uM, plate 1, normalised to DMSO and 2,4-PDCA controls
[5] = LOPAC compound at fixed 20 uM, substrate conversion, plate 1
[6] = LOPAC Plate 4, compound at 20 uM
[7] = LOPAC Plate 4, compound at 20 uM, substrate conversion

Question: With `CC(C)C(=O)c1c(C(C)C)nn2ccccc12` [Ibudilast] as the molecule, how does the “Plate 2 (% conversion)” value [1] read?
Answer: 39.05%

Question: And the inhibition at 20 µM [2]?
Answer: -9.26%

Question: Which “Plate 2 (% conversion)” value [1] does the source give for `CC(=O)[C@]1(O)Cc2c(O)c3c(c(O)c2[C@@H](O[C@H]2C[C@H](N)[C@H](O)[C@H](C)O2)C1)C(=O)c1ccccc1C3=O` [Idarubicin] here?
Answer: 34.69%

Question: What about the inhibition at 20 µM [2] of the same molecule?
Answer: 3.78%

Question: With `c1ccc2c(c1)OCC(C1=NCCN1)O2` (centres unmarked) [Idazoxan hydrochloride] as the molecule, how does the “Plate 3 (% conversion)” value [3] read?
Answer: 39.66%

Question: How did the “Plate 3 (% conversion)” value [3] turn out when `CC(C(O)c1ccc(O)cc1)N1CCC(Cc2ccccc2)CC1.CC(C(O)c1ccc(O)cc1)N1CCC(Cc2ccccc2)CC1.O=C(O)C(O)C(O)C(=O)O` (centres unmarked) [Ifenprodil tartrate] was run?
Answer: 17.74%

Question: With `O=C1CCC(c2ccc(-n3ccnc3)cc2)=NN1` [Imazodan] as the molecule, how does the “Plate 2 (% conversion)” value [1] read?
Answer: 38.21%

Question: And the inhibition at 20 µM [2]?
Answer: -6.74%

Question: For `N=C(N)SCCc1cnc[nH]1` [Imetit dihydrobromide], which “Plate 3 (% conversion)” value is on record?
Answer: 29.48%

Question: What does the source list for `Cl.O=C(O)Cc1c[nH]cn1` [Imidazole-4-acetic acid hydrochloride]?
Answer: Plate 2 (% conversion): 36.46%; Plate 2 (% inhibition) (20 µM): -1.52%

Question: With `C[C@@H](O)[C@H]1C(=O)N2C(C(=O)O)=C(SCCN=CN)C[C@H]12` [Imipenem monohydrate] as the molecule, how does the “Plate 1 (% inhibition)” value [4] read?
Answer: 6.01%

Question: What about the “Plate 1 (% conversion)” value [5] of the same molecule?
Answer: 33.85%

Question: `CN[C@@H]1C[C@@H](c2ccc(Cl)c(Cl)c2)c2ccccc21` [Indatraline hydrochloride] was tested. Which “Plate 3 (% conversion)” value did it give?
Answer: 41.79%

Question: `CC(C)(C)NC(=O)[C@@H]1CN(Cc2cccnc2)CCN1C[C@@H](O)C[C@@H](Cc1ccccc1)C(=O)N[C@H]1c2ccccc2C[C@H]1O.O=S(=O)(O)O` [Indinavir sulfate salt hydrate] was tested. Which “Plate 1 (% inhibition)” value [4] did it give?
Answer: -10.28%

Question: What about the “Plate 1 (% conversion)” value [5] of the same molecule?
Answer: 39.32%

Question: What does the source list for `O=C1Nc2ccccc2/C1=C1/Nc2ccccc2/C1=N\O` [Indirubin-3-oxime]?
Answer: Plate 1 (% inhibition) [4]: 11.42%; Plate 1 (% conversion) [5]: 32.04%

Question: For `NC(=O)CI` [Iodoacetamide, reference compound], which “Inhibition at 20 µM [%]” value is on record?
Answer: 102.0%

Question: For `CC(C)NNC(=O)c1ccncc1.O=P(O)(O)O` [Iproniazid phosphate], which “Plate 3 (% conversion)” value [3] is on record?
Answer: 39.38%

Question: `O=C(/C=C/c1ccc(O)cc1)c1ccc(O)cc1O` [Isoliquiritigenin] was tested. Which “Plate 3 (% conversion)” value [3] did it give?
Answer: 31.17%

Question: `CCC(NC(C)C)C(O)c1ccc(O)c(O)c1.CS(=O)(=O)O` (centres unmarked) [Isotharine mesylate] was tested. Which “Plate 3 (% conversion)” value [3] did it give?
Answer: 6.91%

Question: How did the “Plate 2 (% conversion)” value [1] turn out when `O=C1c2ccccc2C(=O)c2c(NCCc3ccc(O)cc3)ccc(NCCc3ccc(O)cc3)c21` [JFD00244] was run?
Answer: 12.89%

Question: What about the “Plate 2 (% inhibition)” value [2] of the same molecule?
Answer: 68.90%

Question: With `Clc1ccc(N/N=C(\c2ccccc2)c2ccccn2)nc1` [JIB-04, reference compound] as the molecule, how does the IC50 read?
Answer: 4.24 ± 0.3 µM

Question: Which results are given for `COc1cc(SC)ccc1C(=O)N1CCC(Cc2ccccc2)CC1` [JX401]?
Answer: Plate 2 (% conversion) [1]: 45.70%; Plate 2 (% inhibition) [2]: -29.09%

Question: How did the “% inhibition” value [6] turn out when `N=C(N)SCCc1ccc(OCc2ccc([N+](=O)[O-])cc2)cc1` [KB-R7493] was run?
Answer: -22.55%

Question: And the “% conversion” value [7]?
Answer: 44.17%

Question: `C=C(C)[C@H]1CN[C@H](C(=O)O)[C@H]1CC(=O)O` [Kainic acid] was tested. Which “Plate 3 (% conversion)” value did it give?
Answer: 38.81%

Question: How did the “Plate 3 (% conversion)” value [3] turn out when `O=C1Cc2c([nH]c3ccc(Br)cc23)-c2ccccc2N1` [Kenpaullone] was run?
Answer: 35.01%

Question: With `O=C(c1ccc(F)cc1)C1CCN(CCn2c(=O)[nH]c3ccccc3c2=O)CC1` [Ketanserin tartrate] as the molecule, how does the “% conversion” value [7] read?
Answer: 19.47%

Question: For `CC(=O)N1CCN(c2ccc(OCC3COC(Cn4ccnc4)(c4ccc(Cl)cc4Cl)O3)cc2)CC1` (centres unmarked) [Ketoconazole], which “Plate 3 (% conversion)” value is on record?
Answer: 46.43%

Question: How did the “Plate 3 (% conversion)” value [3] turn out when `CC(C(=O)O)c1cccc(C(=O)c2ccccc2)c1` (centres unmarked) [Ketoprofen] was run?
Answer: 34.58%

Question: Which “Plate 3 (% conversion)” value [3] does the source give for `NC(CO)(CO)CO.O=C(c1ccccc1)c1ccc2n1CCC2C(=O)O` (centres unmarked) [Ketorolac tris salt] here?
Answer: 36.01%

Question: What does the source list for `NC[C@H](O)c1ccc(O)c(O)c1.O=C(O)C(O)C(O)C(=O)O` [L(-)-Norepinephrine bitartrate]?
Answer: Plate 1 (% inhibition) [4]: 89.51%; Plate 1 (% conversion) [5]: 5.81%

Question: What does the source list for `N[C@@H](CCCC(=O)O)C(=O)O` [L-2-aminoadipic acid]?
Answer: Plate 1 (% inhibition) [4]: -2.85%; Plate 1 (% conversion) [5]: 36.83%

Question: What does the source list for `N[C@@H](Cc1ccc(O)c(O)c1)C(=O)O` [L-3,4-Dihydroxyphenylalanine]?
Answer: Plate 2 (% conversion) [1]: 10.03%; Plate 2 (% inhibition) [2]: 77.43%

Question: How did the “Plate 3 (% conversion)” value turn out when `Ic1ccccc1CNC1C2CCN(CC2)C1C(c1ccccc1)c1ccccc1.O=C(O)C(=O)O` [L-703,606 oxalate salt hydrate] was run?
Answer: 12.64%

Question: With `N=C(N)NCCC[C@H](N)C(=O)O` [L-Arginine] as the molecule, how does the “Plate 1 (% conversion)” value read?
Answer: 38.11%

Question: What about the “Plate 1 (% inhibition)” value of the same molecule?
Answer: -6.68%

Question: With `N[C@@H](CC(=O)O)C(=O)O` [L-Aspartic acid] as the molecule, how does the “Plate 1 (% inhibition)” value [4] read?
Answer: -3.19%

Question: And the “Plate 1 (% conversion)” value [5]?
Answer: 36.94%

Question: For `N[C@H](C(=O)O)[C@H](Cc1ccccc1)C(=O)O` [L-Beta-threo-benzyl-aspartate], which “% conversion” value [7] is on record?
Answer: 30.62%

Question: With `CCCCS(=N)(=O)CC[C@H](N)C(=O)O` (stereo partly drawn) [L-Buthionine-sulfoximine] as the molecule, how does the “Plate 1 (% inhibition)” value [4] read?
Answer: 3.50%

Question: And the “Plate 1 (% conversion)” value [5]?
Answer: 34.70%

Question: How did the “Plate 1 (% conversion)” value turn out when `NC(N)=NOCC[C@H](N)C(=O)O.O=S(=O)(O)O` [L-Canavanine sulfate] was run?
Answer: 38.13%

Question: What about the “Plate 1 (% inhibition)” value of the same molecule?
Answer: -6.73%

Question: With `N[C@H]1CON=C1O` [L-Cycloserine] as the molecule, how does the “Plate 1 (% inhibition)” value [4] read?
Answer: -2.43%

Question: And the “Plate 1 (% conversion)” value [5]?
Answer: 36.69%

Question: `N[C@@H](CS(=O)O)C(=O)O` [L-Cysteinesulfinic Acid] was tested. Which “Plate 1 (% inhibition)” value [4] did it give?
Answer: 8.76%

Question: And the “Plate 1 (% conversion)” value [5]?
Answer: 32.93%

Question: `N[C@H](C(=O)O)[C@H](O)c1ccc(O)c(O)c1` [L-DOPS] was tested. Which “Plate 3 (% conversion)” value [3] did it give?
Answer: 7.53%

Question: What does the source list for `Cl.N[C@@H](CCC(=O)O)C(=O)O` [L-Glutamic acid hydrochloride]?
Answer: Plate 2 (% conversion) [1]: 29.01%; Plate 2 (% inhibition) [2]: 20.74%

Question: `NC(=O)CC[C@H](N)C(=O)O` [L-Glutamine] was tested. Which “Plate 2 (% conversion)” value [1] did it give?
Answer: 35.03%

Question: And the inhibition at 20 µM [2]?
Answer: 2.77%

Question: What does the source list for `N[C@@H](Cn1ccc(=O)c(O)c1)C(=O)O` [L-Mimosine from Koa hoale seeds]?
Answer: % conversion: 35.13%; % inhibition [6]: 3.94%

Question: With `N[C@@H](Cn1ccc(=O)c(O)c1)C(=O)O` [L-Mimosine, reference compound] as the molecule, how does the IC50 read?
Answer: 5.06 ± 0.28 µM

Question: `CC(=N)NCCCC[C@H](N)C(=O)O.Cl` [L-N6-(1-Iminoethyl)lysine hydrochloride] was tested. Which “Plate 3 (% conversion)” value [3] did it give?
Answer: 40.67%

Question: For `N[C@@H](Cc1c[nH]c2ccccc12)C(=O)O` [L-Tryptophan], which “% conversion” value [7] is on record?
Answer: 29.06%

Question: Which “Plate 1 (% inhibition)” value [4] does the source give for `C=CC[C@H](N)C(=O)O` [L-allylglycine] here?
Answer: 0.29%

Question: What about the “Plate 1 (% conversion)” value [5] of the same molecule?
Answer: 35.78%

Question: With `C[C@](N)(Cc1ccc(O)cc1)C(=O)O` [L-alpha-Methyl-p-tyrosine] as the molecule, how does the “Plate 3 (% conversion)” value read?
Answer: 32.12%
